Tests used:
HPK1 = HPK1 (Homo sapiens (Human), UniProt Q92918); assay: HPK1 ADP-Glo enzyme assay; type: biochemical; conditions: HPK1 protein 5 nM, MBP and ATP substrate, ADP-Glo readout
Description: The buffer used in the enzyme assay contains 5 mM MOPS (pH=7.2), 2.5 mM β-Glycerol Phosphate, 0.4 mM EDTA, 1 mM EGTA, 0.05 mM DTT, 5 mM MgCl2. The compound was dissolved in 100% DMSO at the concentration was 10 mM. The initial concentration of the test was 5 uM, and ten data points were diluted by three-fold gradient, and each point was repeatedly measured twice. The HPK1 protein was purchased from Thermo (Cat. No. PV6355) and diluted to 2× stock solution at the concentration of 10 nM (the final concentration of the enzyme assay was 5 nM). 2.5 µl of 2×HPK1 protein was added to each well of the plate containing the test compound, centrifuged at 1000 rpm for 30 seconds, and then incubated at 25° C. for 15 minutes. MBP protein was purchased from Millipore (Cat. No. 13-110) and ATP was purchased from Sigma (Cat. No. A7699-5G) and the two were formulated into 2× working solutions at concentrations of 4 uM and 80 uM. Added 2.5 μl mixture of 2×MBP and ATP, centrifuged at 1000 rpm for 30 seconds, then incubated at 25° C. for 90 minutes. Then added 5 ul of ADP-Glo™ (Promega, Cat. No. V9102) to the assay plate and incubated […] at 25° C. for 60 minutes. Finally, 10 ul of the kinase assay reagent (Promega, Cat. No. V9102) was added to the assay plate, centrifuged at 1000 rpm for 30 seconds at 25° C. for 60 minutes, and the […] intensity was determined.

[1] = system: pSLP-76(Ser376) in Jurkat E6-1 cells; assay: Jurkat E6-1 pSLP-76(Ser376) HTRF experiment; type: cell-based; conditions: 4 hours compound incubation, anti-human CD3 antibody 20 minutes, Phospho-SLP-76 / SLP-76 HTRF
Description: Jurkat E6-1 cells were purchased from ATCC (Cat. No. TIB-152TM) and cultured overnight with RPMI 1640 containing 0.5% o FBS, after that 20 μL (10^7 cells/mL) cells were added to the experimental plates. Then the test compounds were diluted by three-fold gradient, and 10 different concentrations were prepared, and 5 μl of each was added to the experimental plate, and incubated for 4 hours in 37° C. incubator containing 5% CO2. Then 5 ul of 6× anti-human CD3 antibody (Biolegend, Cat. No. 300432) was added and incubated for 20 minutes in 37° C. incubator containing 5% CO2. Finally, the Phospho-SLP-76 and SLP-76 results were determined using the Cisbio Phospho-SLP-76 and SLP-76 HTRF assay kits (items: 63ADK076PEH and 63ADK077PEH, respectively). Based on the results, the IC50 of the compound is calculated.

Chain of HPK1 (Q92918 whole entry): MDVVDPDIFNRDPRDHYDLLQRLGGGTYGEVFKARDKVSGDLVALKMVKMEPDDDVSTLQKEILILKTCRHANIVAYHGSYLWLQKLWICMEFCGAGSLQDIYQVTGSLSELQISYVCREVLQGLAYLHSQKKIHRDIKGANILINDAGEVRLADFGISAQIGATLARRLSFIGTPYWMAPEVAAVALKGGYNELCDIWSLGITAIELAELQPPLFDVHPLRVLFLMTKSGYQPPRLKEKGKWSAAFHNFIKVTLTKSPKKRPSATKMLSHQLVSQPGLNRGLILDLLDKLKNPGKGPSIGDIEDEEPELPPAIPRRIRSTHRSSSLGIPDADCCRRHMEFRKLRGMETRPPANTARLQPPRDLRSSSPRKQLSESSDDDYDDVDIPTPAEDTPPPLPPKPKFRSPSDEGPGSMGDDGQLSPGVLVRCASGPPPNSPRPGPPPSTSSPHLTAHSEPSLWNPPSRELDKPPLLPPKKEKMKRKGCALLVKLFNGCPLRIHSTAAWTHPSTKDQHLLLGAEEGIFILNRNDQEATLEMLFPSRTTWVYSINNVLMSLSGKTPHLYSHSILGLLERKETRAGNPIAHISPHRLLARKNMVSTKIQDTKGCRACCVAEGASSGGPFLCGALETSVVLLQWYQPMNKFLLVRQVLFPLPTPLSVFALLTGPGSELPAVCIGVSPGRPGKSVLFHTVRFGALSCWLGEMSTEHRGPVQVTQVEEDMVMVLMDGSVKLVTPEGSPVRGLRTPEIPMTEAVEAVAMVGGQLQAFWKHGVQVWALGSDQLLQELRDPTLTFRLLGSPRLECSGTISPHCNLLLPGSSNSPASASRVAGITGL

Row | IC50 (HPK1) [nM] | IC50 [1] [nM] | Structure (SMILES)
1 | < 100 | < 1000 | CC(C)(O)C#Cc1cccc(COc2cc(-c3cnc(C4CCCCN4)s3)cnc2N)c1 (stereo not drawn) [A49]
2 | < 100 |  | CN1CCN(C2CCN(c3ncc(-c4cnc(N)c(OCc5cccc(C#CC(C)(C)O)c5)c4)s3)CC2)CC1 [A69]
3 | < 100 | < 1000 | CN1CCC(c2ncc(-c3cnc(N)c(OCc4cc(F)cc(C#CC(C)(C)O)c4)c3)s2)CC1 [A57]
4 | < 100 | < 1000 | Nc1ncc(-c2cnc(C3CCOCC3)s2)cc1OCc1cc(C#CC2(O)CC2)ccc1F [A46]
5 | < 100 | < 1000 | Cc1ccc(C#CC(C)(C)O)cc1COc1cc(-c2cnc(C3CCN(C)CC3)s2)cnc1N [A60]
6 | < 100 | < 1000 | CN1CCN(c2ncc(-c3cnc(N)c(OCc4cccc(C#CC(C)(C)O)c4)c3)s2)CC1 [A25]
7 | < 100 | < 1000 | Nc1ncc(-c2cnc(C3CCNCC3)s2)cc1OCc1cc(C#CC2(O)CC2)ccc1F [A53]
8 | 100 to 1000 |  | CN1CCC(c2ccnc(-c3cnc(N)c(OCc4cccc(C#CC(C)(C)O)c4)c3)c2)CC1 [A58]
9 | < 100 |  | CN1CCC(c2ncc(-c3cnc(N)c(OCc4cc(C#CC(C)(C)O)ccc4C(F)(F)F)c3)s2)CC1 [A76]
10 | < 100 | < 1000 | CC1CN(c2ncc(-c3cnc(N)c(OCc4cccc(C#CC(C)(C)O)c4)c3)s2)CC(C)N1C (stereo not drawn) [A26]
11 |  | < 1000 | CN1CCN(c2ncc(-c3cnc(N)c(OCc4ccncc4)c3)s2)CC1 [A12]
12 | < 100 | 1000 to 50000 | CN1CCC(c2ncc(-c3cnc(N)c(OCc4cncc(C#CC(C)(C)O)c4)c3)s2)CC1 [A44]
13 | < 100 | < 1000 | CC1CN(C)CCN1c1ncc(-c2cnc(N)c(OCc3cccc(C#CC(C)(C)O)c3)c2)s1 (stereo not drawn) [A63]
14 | < 100 | < 1000 | Nc1ncc(-c2cnn(C3CCOCC3)c2)cc1OCc1cccc(C#CC2(O)CC2)c1 [A47]
15 | < 100 | < 1000 | CN1CCC(c2ncc(-c3cnc(N)c(OCc4cc(C#CC(C)(C)O)ccc4Cl)c3)s2)CC1 [A55]
16 | 100 to 1000 |  | CC(C)(O)C#Cc1cccc(COc2cc(-c3cnc(N4CCCCC4)s3)cnc2N)c1 [A29]
17 | < 100 | < 1000 | COc1ccc(C#CC(C)(C)O)cc1COc1cc(-c2cnc(C3CCN(C)CC3)s2)cnc1N [A59]
18 | < 100 |  | CC(C)(O)C#Cc1cccc(COc2cc(-c3cnn(C4CCOCC4)c3)cnc2N)c1 [A80]
19 | < 100 |  | CC(C)(O)C#Cc1ccc(CN)c(COc2cc(-c3cnc(C4CCOCC4)s3)cnc2N)c1 [A84]
20 | 100 to 1000 | 1000 to 50000 | CC(C)c1ncc(-c2cnc(N)c(OCc3cncc(C#CC(C)(C)O)c3)c2)s1 [A45]
21 | > 1000 |  | Nc1ncc(-c2cccc(N3CCOCC3=O)c2)cc1OCc1ccncc1 [A85]
22 | < 100 | < 1000 | C=CC(C)(O)C#Cc1cccc(COc2cc(-c3cnc(C4CCN(C)CC4)s3)cnc2N)c1 (stereo not drawn) [A64]

Row | IC50 (HPK1) [nM] | IC50 [1] [nM] | Structure (SMILES)
23 | < 100 | < 1000 | CC(C)c1ncc(-c2cnc(N)c(OCc3cc(C#CC(C)(C)O)ccc3F)c2)s1 [A21]
24 | 100 to 1000 | 1000 to 50000 | CN1CCC(c2ncc(-c3cnc(N)c(OCc4ccnc(C#N)c4)c3)s2)CC1 [A11]
25 | < 100 |  | CC(C)c1ncc(-c2cnc(N)c(OCc3cc(C#CC(C)(C)O)cc(CN)c3)c2)s1 [A70]
26 |  | < 1000 | CN1CCC(c2ncc(-c3cnc(N)c(OCc4ccnc(C#CC(C)(C)O)c4)c3)s2)CC1 [A10]
27 |  | < 1000 | Nc1ncc(-c2cnc(C3CCOCC3)s2)cc1OCc1ccncc1 [A13]
28 | < 100 |  | CC(C)(O)C#Cc1cccc(COc2cc(-c3cnn(C4CCNCC4)c3)cnc2N)c1 [A79]
29 |  | < 1000 | CN1CCC(c2ncc(-c3cnc(N)c(OCc4cccc(C#CC5(O)CCC5)c4)c3)s2)CC1 [A40]
30 | < 100 |  | CN1CCC(n2cc(-c3cnc(N)c(OCc4cccc(C#CC(C)(O)CF)c4)c3)cn2)CC1 (stereo not drawn) [A74]
31 | < 100 | < 1000 | CC(C)(O)C#Cc1cccc(COc2cc(-c3cnc(C4CCOCC4)s3)cnc2N)c1 [A23]
32 | < 100 |  | CN1CCC(c2ncc(-c3cnc(N)c(OCc4cc(C#CC(C)(C)O)cc(CN)c4)c3)s2)CC1 [A83]
33 | 100 to 1000 |  | CC(C)(O)C#Cc1cccc(COc2cc(-c3cnc(Oc4ccccc4)s3)cnc2N)c1 [A18]
34 |  | < 1000 | Nc1ncc(-c2cnc(C3CCCCC3)s2)cc1OCc1ccncc1 [A37]
35 | < 100 | < 1000 | CN1CCC(n2cc(-c3cnc(N)c(OCc4cccc(C#CC(C)(C)O)c4)c3)cn2)CC1 [A32]
36 |  | 1000 to 50000 | CC(C)c1ncc(-c2cnc(N)c(OCc3ccncc3)c2)s1 [A36]
37 | < 100 |  | CC(C)c1ncc(-c2cnc(N)c(OCc3cc(C#CC(C)(C)O)ccc3CN)c2)s1 [A67]
38 | < 100 | < 1000 | Nc1ncc(-c2cnc(C3CCNCC3)s2)cc1OCc1cccc(C#CC2(O)CC2)c1 [A52]
39 | > 1000 |  | CN1CCC(c2ncc(-c3cnc(N)c(OCc4cccc(C#CC(C)(O)C(F)(F)F)c4)c3)s2)CC1 (stereo not drawn) [A33]
40 | < 100 | < 1000 | CC1CN(c2ncc(-c3cnc(N)c(OCc4cccc(C#CC(C)(C)O)c4)c3)s2)CCN1C (stereo not drawn) [A22]
41 | 100 to 1000 | 1000 to 50000 | CN1CCC(c2ncc(-c3cnc(N)c(OCc4ccccc4)c3)s2)CC1 [A2]
42 |  | < 1000 | CC(C)(O)C#Cc1cccc(COc2cc(-c3cnc(C4CCNCC4)s3)cnc2N)c1 [A42]
43 | < 100 | 1000 to 50000 | CC(C)(O)C#Cc1cccc(COc2cc(-c3cnc(C4CCN(CC(F)(F)F)CC4)s3)cnc2N)c1 [A27]
44 | < 100 | < 1000 | Nc1ncc(-c2cnc(C3CCOCC3)s2)cc1OCc1cccc(C#CC2(O)CC2)c1 [A50]

Row | IC50 (HPK1) [nM] | IC50 [1] [nM] | Structure (SMILES)
45 | 100 to 1000 |  | CC(C)(O)C#Cc1cccc(COc2cc(-c3cnc(C4CCCCC4)s3)cnc2N)c1 [A30]
46 | < 100 |  | CN1CCC(n2cc(-c3cnc(N)c(OCc4cc(C#CC(C)(C)O)ccc4F)c3)cn2)CC1 [A73]
47 |  | < 1000 | CN1CCC(c2ncc(-c3cnc(N)c(OCc4cccc(C#CC5(O)CCCC5)c4)c3)s2)CC1 [A34]
48 | < 100 | < 1000 | CN1CCC(c2ncc(-c3cnc(N)c(OCc4cc(C#CC5(O)CC5)ccc4F)c3)s2)CC1 [A48]
49 |  | 1000 to 50000 | CN1CCC(c2ncc(-c3cnc(N)c(OCc4ccnc(Cl)c4)c3)s2)CC1 [A8]
50 | < 100 |  | CC(C)(O)C#Cc1cc(CN)cc(COc2cc(-c3cnc(C4CCOCC4)s3)cnc2N)c1 [A81]
51 | 100 to 1000 | 1000 to 50000 | CC(Oc1cc(-c2cnc(C3CCN(C)CC3)s2)cnc1N)c1ccncc1 (stereo not drawn) [A4]
52 | < 100 | < 1000 | CN1CCC(c2ncc(-c3cnc(N)c(OCc4ccncc4)c3)s2)CC1 [A1]
53 | < 100 | 1000 to 50000 | CSc1ncc(-c2cnc(N)c(OCc3cccc(C#CC(C)(C)O)c3)c2)s1 [A17]
54 | 100 to 1000 |  | Cc1nc(C2CCN(C)CC2)sc1-c1cnc(N)c(OCc2ccncc2)n1 [A15]
55 | < 100 | < 1000 | CN1CCC(c2ncc(-c3cnc(N)c(OCc4cc(C#CC(C)(C)O)ccc4F)c3)s2)CC1 [A19]
56 |  | 1000 to 50000 | CC(C)c1ncc(-c2cnc(N)c(OCc3cccc(C#CC(C)(C)O)c3)c2)s1 [A41]
57 | 100 to 1000 |  | CN1CCC(c2ncc(-c3cnc(N)c(OCc4cccc(C#CC5(O)CCCCC5=O)c4)c3)s2)CC1 (stereo not drawn) [A61]
58 | < 100 |  | CN1CCC(c2ncc(-c3cnc(N)c(OCc4ccc(F)c(C#CC(C)(C)O)c4)c3)s2)CC1 [A75]
59 | < 100 | < 1000 | CC(C)(O)C#Cc1ccc(F)c(COc2cc(-c3cnc(C4CCNCC4)s3)cnc2N)c1 [A31]
60 |  | < 1000 | Nc1ncc(-c2cnc(C3CCNCC3)s2)cc1OCc1ccncc1 [A7]
61 | < 100 | < 1000 | Nc1ncc(-c2cnn(C3CCOCC3)c2)cc1OCc1cc(C#CC2(O)CC2)ccc1F [A51]
62 | < 100 | < 1000 | CN1CCCN(c2ncc(-c3cnc(N)c(OCc4cccc(C#CC(C)(C)O)c4)c3)s2)CC1 [A24]
63 |  | < 1000 | CN1CCC(c2ncc(-c3cnc(N)c(OCc4cccc(C#CC(C)(C)O)c4)c3)s2)CC1 [A3]
64 | < 100 | < 1000 | Nc1ncc(-c2cnn(C3CCNCC3)c2)cc1OCc1cccc(C#CC2(O)CC2)c1 [A54]
65 | < 100 | < 1000 | CC(C)(O)C#Cc1cccc(COc2cc(-c3cnc(C4CCCNC4)s3)cnc2N)c1 (stereo not drawn) [A56]
66 | < 100 |  | CN1CCC(c2ncc(-c3cnc(N)c(OCc4cccc(C#CC(C)(C)O)c4)c3)s2)C1 (stereo not drawn) [A72]

From patent publication US20240300941A1, “HPK1 INHIBITORS, PREPARATION METHOD AND APPLICATION THEREOF” (ZHUHAI YUFAN BIOTECHNOLOGIES CO., LTD., priority 2018, published 2024)
